Experimental data reported in PubChem BioAssay (NCI).
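All cell lines were grown in 96-well plates and treated with compound for 48 hours. TGI: total growth inhibition.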

Experiments:
Experiment in all cases: NCI tumour cell line growth inhibition, 48 h
MOLT-4 leukemia = test system: MOLT-4 leukemia
U251 CNS = test system: U251 CNS
HCT-15 colon = test system: HCT-15 colon
786-0 renal = test system: 786-0 renal
SNB-78 CNS = test system: SNB-78 CNS
HL-60(TB) leukemia = test system: HL-60(TB) leukemia
UACC-257 melanoma = test system: UACC-257 melanoma
IGROV1 ovarian = test system: IGROV1 ovarian
SF-539 CNS = test system: SF-539 CNS
SNB-19 CNS = test system: SNB-19 CNS
NCI-H226 lung = test system: NCI-H226 lung
DLD-1 colon = test system: DLD-1 colon
UO-31 renal = test system: UO-31 renal
M19-MEL melanoma = test system: M19-MEL melanoma
RPMI-8226 leukemia = test system: RPMI-8226 leukemia
NCI-H522 lung = test system: NCI-H522 lung
KM12 colon = test system: KM12 colon
RXF 393 renal = test system: RXF 393 renal
A498 renal = test system: A498 renal
A549 NSCLC = test system: A549 NSCLC
COLO 205 colon = test system: COLO 205 colon
K-562 leukemia = test system: K-562 leukemia
SR leukemia = test system: SR leukemia
SK-OV-3 ovarian = test system: SK-OV-3 ovarian
SF-268 CNS = test system: SF-268 CNS
HOP-18 NSCLC = test system: HOP-18 NSCLC
EKVX NSCLC = test system: EKVX NSCLC
SNB-75 CNS = test system: SNB-75 CNS
LOX IMVI melanoma = test system: LOX IMVI melanoma
SK-MEL-2 melanoma = test system: SK-MEL-2 melanoma
OVCAR-4 ovarian = test system: OVCAR-4 ovarian
SW-620 colon = test system: SW-620 colon
ACHN renal = test system: ACHN renal
KM20L2 colon = test system: KM20L2 colon
NCI-H23 lung = test system: NCI-H23 lung
SK-MEL-5 melanoma = test system: SK-MEL-5 melanoma
OVCAR-8 ovarian = test system: OVCAR-8 ovarian
CCRF-CEM leukemia = test system: CCRF-CEM leukemia
M14 melanoma = test system: M14 melanoma
OVCAR-3 ovarian = test system: OVCAR-3 ovarian
LXFL 529 NSCLC = test system: LXFL 529 NSCLC
MALME-3M melanoma = test system: MALME-3M melanoma
HOP-62 NSCLC = test system: HOP-62 NSCLC
SF-295 CNS = test system: SF-295 CNS
RXF-631 renal = test system: RXF-631 renal
XF 498 CNS = test system: XF 498 CNS
UACC-62 melanoma = test system: UACC-62 melanoma
SK-MEL-28 melanoma = test system: SK-MEL-28 melanoma
SN12C renal = test system: SN12C renal
HCC-2998 colon = test system: HCC-2998 colon
HT29 colon = test system: HT29 colon
HCT-116 colon = test system: HCT-116 colon
NCI-H460 lung = test system: NCI-H460 lung
DMS 114 small cell lung = test system: DMS 114 small cell lung
DMS 273 small cell lung = test system: DMS 273 small cell lung
TK-10 renal = test system: TK-10 renal
CAKI-1 renal = test system: CAKI-1 renal
OVCAR-5 ovarian = test system: OVCAR-5 ovarian

How did the TGI (MOLT-4 leukemia) turn out when `C=C1C[C@]23CCC4C(C)(C)C(=O)CC[C@]4(C)C2C[C@H]1C(O)C3=O` (stereo partly specified) was run?
Its TGI is greater than 75 µM.

What about the TGI (U251 CNS) of the same molecule?
Its TGI is greater than 75 µM.

What about the TGI (HCT-15 colon) of the same molecule?
The TGI was greater than 75 µM.

What about the TGI (786-0 renal) of the same molecule?
Its TGI is greater than 75 µM.

And the TGI (SNB-78 CNS)?
The TGI was greater than 75 µM.

And the TGI (HL-60(TB) leukemia)?
The TGI was greater than 75 µM.

And the TGI (UACC-257 melanoma)?
The TGI was greater than 75 µM.

And the TGI (IGROV1 ovarian)?
The TGI was greater than 75 µM.

And the TGI (SF-539 CNS)?
Its TGI is greater than 75 µM.

What about the TGI (SNB-19 CNS) of the same molecule?
The TGI was greater than 75 µM.

What about the TGI (NCI-H226 lung) of the same molecule?
Its TGI is greater than 75 µM.

And the TGI (DLD-1 colon)?
The TGI was greater than 75 µM.

What about the TGI (UO-31 renal) of the same molecule?
Its TGI is greater than 75 µM.

What about the TGI (M19-MEL melanoma) of the same molecule?
The TGI was greater than 75 µM.

What about the TGI (RPMI-8226 leukemia) of the same molecule?
The TGI was greater than 75 µM.

And the TGI (NCI-H522 lung)?
Its TGI is greater than 75 µM.

And the TGI (KM12 colon)?
The TGI was greater than 75 µM.

And the TGI (RXF 393 renal)?
Its TGI is greater than 75 µM.

What about the TGI (A498 renal) of the same molecule?
Its TGI is greater than 75 µM.

And the TGI (A549 NSCLC)?
The TGI was greater than 75 µM.

What about the TGI (COLO 205 colon) of the same molecule?
The TGI was greater than 75 µM.

And the TGI (K-562 leukemia)?
Its TGI is greater than 75 µM.

And the TGI (SR leukemia)?
Its TGI is greater than 75 µM.

And the TGI (SK-OV-3 ovarian)?
The TGI was greater than 75 µM.

What about the TGI (SF-268 CNS) of the same molecule?
The TGI was greater than 75 µM.

What about the TGI (HOP-18 NSCLC) of the same molecule?
The TGI was greater than 75 µM.

And the TGI (EKVX NSCLC)?
Its TGI is greater than 75 µM.

What about the TGI (SNB-75 CNS) of the same molecule?
The TGI was greater than 75 µM.

What about the TGI (LOX IMVI melanoma) of the same molecule?
Its TGI is greater than 75 µM.

And the TGI (SK-MEL-2 melanoma)?
Its TGI is greater than 75 µM.

And the TGI (OVCAR-4 ovarian)?
Its TGI is greater than 75 µM.

What about the TGI (SW-620 colon) of the same molecule?
The TGI was greater than 75 µM.

And the TGI (ACHN renal)?
The TGI was greater than 75 µM.

What about the TGI (KM20L2 colon) of the same molecule?
Its TGI is greater than 75 µM.

And the TGI (NCI-H23 lung)?
Its TGI is greater than 75 µM.

And the TGI (SK-MEL-5 melanoma)?
Its TGI is greater than 75 µM.

What about the TGI (OVCAR-8 ovarian) of the same molecule?
Its TGI is greater than 75 µM.

And the TGI (CCRF-CEM leukemia)?
The TGI was greater than 75 µM.

And the TGI (M14 melanoma)?
The TGI was greater than 75 µM.

What about the TGI (OVCAR-3 ovarian) of the same molecule?
The TGI was greater than 75 µM.

What about the TGI (LXFL 529 NSCLC) of the same molecule?
The TGI was greater than 75 µM.

What about the TGI (MALME-3M melanoma) of the same molecule?
Its TGI is greater than 75 µM.

And the TGI (HOP-62 NSCLC)?
The TGI was greater than 75 µM.

And the TGI (SF-295 CNS)?
Its TGI is greater than 75 µM.

What about the TGI (RXF-631 renal) of the same molecule?
Its TGI is greater than 75 µM.

And the TGI (XF 498 CNS)?
The TGI was greater than 75 µM.

What about the TGI (UACC-62 melanoma) of the same molecule?
The TGI was greater than 75 µM.

And the TGI (SK-MEL-28 melanoma)?
The TGI was greater than 75 µM.

And the TGI (SN12C renal)?
Its TGI is greater than 75 µM.

Which TGI (HCC-2998 colon) does the source give for `Cc1cc(C)c(C2[C@H]3C(=O)N(c4ccc(Cc5ccc(N6C(=O)[C@@H]7ON(c8ccccc8)C(c8c(C)cc(C)cc8C)[C@@H]7C6=O)cc5)cc4)C(=O)[C@H]3ON2c2ccccc2)c(C)c1` (stereo partly specified) here?
Its TGI is greater than 100 µM.

And the TGI (MOLT-4 leukemia)?
The TGI was greater than 100 µM.

What about the TGI (HT29 colon) of the same molecule?
The TGI was greater than 100 µM.

And the TGI (U251 CNS)?
Its TGI is greater than 100 µM.

And the TGI (HCT-15 colon)?
Its TGI is greater than 100 µM.

What about the TGI (786-0 renal) of the same molecule?
The TGI was greater than 100 µM.

And the TGI (SNB-78 CNS)?
Its TGI is greater than 100 µM.

What about the TGI (HL-60(TB) leukemia) of the same molecule?
The TGI was greater than 100 µM.

And the TGI (UACC-257 melanoma)?
Its TGI is greater than 100 µM.

What about the TGI (IGROV1 ovarian) of the same molecule?
The TGI was greater than 100 µM.

What about the TGI (SF-539 CNS) of the same molecule?
The TGI was greater than 100 µM.

What about the TGI (SNB-19 CNS) of the same molecule?
Its TGI is greater than 100 µM.

And the TGI (NCI-H226 lung)?
The TGI was greater than 100 µM.

What about the TGI (HCT-116 colon) of the same molecule?
Its TGI is greater than 100 µM.

What about the TGI (DLD-1 colon) of the same molecule?
The TGI was greater than 100 µM.

What about the TGI (NCI-H460 lung) of the same molecule?
The TGI was greater than 100 µM.

And the TGI (UO-31 renal)?
The TGI was greater than 100 µM.

What about the TGI (M19-MEL melanoma) of the same molecule?
The TGI was greater than 100 µM.

What about the TGI (RPMI-8226 leukemia) of the same molecule?
Its TGI is greater than 100 µM.

And the TGI (NCI-H522 lung)?
Its TGI is greater than 100 µM.

What about the TGI (DMS 114 small cell lung) of the same molecule?
Its TGI is greater than 100 µM.

What about the TGI (KM12 colon) of the same molecule?
Its TGI is greater than 100 µM.

What about the TGI (RXF 393 renal) of the same molecule?
The TGI was greater than 100 µM.

What about the TGI (A498 renal) of the same molecule?
The TGI was greater than 100 µM.

What about the TGI (A549 NSCLC) of the same molecule?
The TGI was greater than 100 µM.

And the TGI (DMS 273 small cell lung)?
Its TGI is greater than 100 µM.

And the TGI (COLO 205 colon)?
Its TGI is greater than 100 µM.

And the TGI (K-562 leukemia)?
Its TGI is greater than 100 µM.

What about the TGI (SR leukemia) of the same molecule?
The TGI was greater than 100 µM.

And the TGI (SK-OV-3 ovarian)?
Its TGI is greater than 100 µM.

What about the TGI (TK-10 renal) of the same molecule?
Its TGI is greater than 100 µM.

And the TGI (SF-268 CNS)?
Its TGI is greater than 100 µM.

What about the TGI (HOP-18 NSCLC) of the same molecule?
Its TGI is greater than 100 µM.

What about the TGI (EKVX NSCLC) of the same molecule?
Its TGI is greater than 100 µM.

What about the TGI (SNB-75 CNS) of the same molecule?
Its TGI is greater than 100 µM.

What about the TGI (LOX IMVI melanoma) of the same molecule?
The TGI was greater than 100 µM.

And the TGI (SK-MEL-2 melanoma)?
The TGI was greater than 100 µM.

What about the TGI (OVCAR-4 ovarian) of the same molecule?
The TGI was greater than 100 µM.

And the TGI (SW-620 colon)?
Its TGI is greater than 100 µM.

And the TGI (ACHN renal)?
The TGI was greater than 100 µM.

And the TGI (CAKI-1 renal)?
Its TGI is greater than 100 µM.

And the TGI (KM20L2 colon)?
The TGI was greater than 100 µM.

And the TGI (NCI-H23 lung)?
Its TGI is greater than 100 µM.

What about the TGI (SK-MEL-5 melanoma) of the same molecule?
Its TGI is greater than 100 µM.

What about the TGI (OVCAR-8 ovarian) of the same molecule?
Its TGI is greater than 100 µM.

What about the TGI (CCRF-CEM leukemia) of the same molecule?
Its TGI is greater than 100 µM.

What about the TGI (OVCAR-5 ovarian) of the same molecule?
The TGI was greater than 100 µM.

And the TGI (M14 melanoma)?
Its TGI is greater than 100 µM.

And the TGI (OVCAR-3 ovarian)?
Its TGI is greater than 100 µM.

What about the TGI (LXFL 529 NSCLC) of the same molecule?
Its TGI is greater than 100 µM.

And the TGI (MALME-3M melanoma)?
Its TGI is greater than 100 µM.

What about the TGI (HOP-62 NSCLC) of the same molecule?
The TGI was greater than 100 µM.

What about the TGI (SF-295 CNS) of the same molecule?
Its TGI is greater than 100 µM.

What about the TGI (RXF-631 renal) of the same molecule?
The TGI was greater than 100 µM.

What about the TGI (UACC-62 melanoma) of the same molecule?
Its TGI is greater than 100 µM.

What about the TGI (SK-MEL-28 melanoma) of the same molecule?
The TGI was greater than 100 µM.

What about the TGI (SN12C renal) of the same molecule?
Its TGI is greater than 100 µM.
